According to patent US20050074408A1, “Keto cannabinoids with therapeutic indications” (University of Connecticut, priority 2002, published 2005):
Where two headings read alike, the source gives them in different places.

Legend:
CB1 cannabinoid receptor = molecular target: T1, CB1 cannabinoid receptor (Rattus norvegicus, UniProt P20272); test: CB1 receptor binding assay ([3H] CP-55,940 displacement, rat forebrain membranes); details: 0.8 nM [3H] CP-55,940
T1 construct: membranes were prepared from rat forebrain membranes; from tissue; host or cells: rat forebrain
T1 sequence (P20272 whole entry): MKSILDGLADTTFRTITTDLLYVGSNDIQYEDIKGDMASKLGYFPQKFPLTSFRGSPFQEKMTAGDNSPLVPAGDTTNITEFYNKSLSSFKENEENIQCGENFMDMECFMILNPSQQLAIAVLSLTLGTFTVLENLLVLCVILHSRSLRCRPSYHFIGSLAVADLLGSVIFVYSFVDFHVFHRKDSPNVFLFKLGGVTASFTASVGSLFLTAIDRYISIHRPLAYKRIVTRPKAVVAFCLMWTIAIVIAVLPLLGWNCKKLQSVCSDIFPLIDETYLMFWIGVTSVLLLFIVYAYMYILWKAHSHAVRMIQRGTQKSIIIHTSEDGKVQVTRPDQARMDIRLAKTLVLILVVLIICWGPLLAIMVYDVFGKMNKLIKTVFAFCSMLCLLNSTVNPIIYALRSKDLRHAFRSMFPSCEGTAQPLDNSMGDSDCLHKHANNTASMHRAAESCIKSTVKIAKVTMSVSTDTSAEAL
Protocol: Some of the inventive compounds were tested for CB2 receptor binding affinity and for CB1 receptor affinity (to determine selectivity for the CB2 receptor). As used herein, “binding affinity” is represented by the Ki value which is the inhibition constant correlated with the concentration of an analog required to occupy the 50% of the total number (Bmax) of the receptors. The lower the Ki value the higher the binding affinity. […] For the CB1 receptor binding studies, membranes were prepared from rat forebrain membranes according to the procedure of P. R. Dodd et al, A Rapid Method for Preparing Synaptosomes: Comparison with Alternative Procedures, Brain Res., 107-118 (1981). The binding of the novel analogues to the CB1 cannabinoid receptor was assessed as described in W. A. Devane et al, Determination and Characterization of a Cannabinoid Receptor in a Rat Brain, Mol. Pharmacol., 34, 605-613 (1988) and A. Charalambous et al, 5′-azido Δ^8−THC: A Novel Photoaffinity Label for the Cannabinoid Receptor, J. Med. Chem., 35, 3076-3079 (1992) with the following changes. The above articles are incorporated by reference herein.
(§1) Membranes, previously frozen at −80° C., were thawed on ice. To the stirred suspension was added three volumes of TME (25 mM Tris-HCl buffer, 5 mM MgCl2 and 1 mM EDTA) at a pH 7.4. The suspension was incubated at 4° C. for 30 min. At the end of the incubation, the membranes were pelleted and washed three times with TME.
The treated membranes were subsequently used in the binding assay described below. Approximately 30 μg of membranes were incubated in silanized 96-well microtiter plate with TME containing 0.1% essentially fatty acid-free bovine serum albumin (BSA), 0.8 nM [^3H] CP-55,940, and various concentrations of test materials in a final volume of 200 μL. The assays were incubated for 1 hour at 30° C. and then immediately filtered using Packard Filtermate 196 harvester and Whatman GF/C filterplates and washed with wash buffer (TME) containing 0.5% BSA. Radioactivity was detected using MicroScint 20 scintillation cocktail added directly to the dried filterplates, and the filterplates were counted using a Packard Instruments Top-Count. Nonspecific binding was assessed using 100 nM CP-55,940. Data collected from three independent experiments performed with duplicate determinations was normalized between 100% and 0% specific binding for [^3H] CP-55,940, determined using buffer and 100 nM CP-55,940. The normalized data was analyzed using a 4-parameter nonlinear logistic equation to yield IC50 values. Data from at least two independent experiments performed in duplicate was used to calculate IC50 values which were converted to Ki values using the assumptions of Cheng et al, Relationship Between the Inhibition Constant (Ki) and the concentration of Inhibitor which causes 50% Inhibition (IC50) of an Enzymatic Reaction, Biochem. Pharmacol., 22, 3099-3102, (1973), which is incorporated by reference herein.

CB2 receptor = molecular target: T2, CB2 receptor (Mus musculus, UniProt P47936); test: CB2 receptor binding assay ([3H] CP-55,940 displacement, mouse spleen membranes)
T2 construct: membranes were prepared from frozen mouse spleen; from tissue; host or cells: mouse spleen
T2 sequence (P47936 whole entry): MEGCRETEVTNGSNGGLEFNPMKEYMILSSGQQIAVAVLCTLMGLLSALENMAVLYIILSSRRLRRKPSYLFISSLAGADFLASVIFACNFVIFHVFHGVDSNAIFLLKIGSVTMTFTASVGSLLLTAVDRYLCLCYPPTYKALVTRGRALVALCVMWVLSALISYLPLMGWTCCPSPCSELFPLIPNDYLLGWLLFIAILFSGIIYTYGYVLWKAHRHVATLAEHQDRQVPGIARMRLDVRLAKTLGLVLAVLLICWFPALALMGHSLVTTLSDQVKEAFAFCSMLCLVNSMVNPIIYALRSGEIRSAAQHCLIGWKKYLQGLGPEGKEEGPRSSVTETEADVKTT
Protocol: as §1
The treated membranes were subsequently used in the binding assay described below. Approximately 30 μg of membranes were incubated in silanized 96-well microtiter plate with TME containing 0.1% essentially fatty acid-free bovine serum albumin (BSA), 0.8 nM [^3H] […] Radioactivity was detected using MicroScint 20 scintillation cocktail added directly to the dried filterplates, and the filterplates were counted using a Packard Instruments Top-Count. […] Data collected from three independent experiments performed with duplicate determinations was normalized between 100% and 0% specific binding for [^3H] […] The normalized data was analyzed using a 4-parameter nonlinear logistic equation to yield IC50 values.
Silanized centrifuge tubes were used throughout to minimize receptor loss due to adsorption. The CB2 binding assay was conducted in the same manner as for the CB1 binding assay. The binding affinities (Ki) were also expressed in nanomoles (nM).

[1] = Fluorescence assay protocol (absorption, excitation and emission scans in MeOH); type: physicochemical
Protocol: The fluorescent properties of some of the inventive compounds were examined using the following fluorescence assay protocol. All samples were processed in the same manner and diluted in JT BAKER PHOTREX Grade MeOH. Cuvettes and flasks were cleaned and rinsed with distilled water then rinsed twice with MeOH. Samples were kept in the freezer prior to testing. NSG Precision Quartz Cuvettes were used for absorption and spectral scans. Samples were diluted with methanol to a final volume of 5 mL. A 100× dilution of the samples in MeOH was performed. Absorption spectra were run using a Beckman DU-40 Spectrophotometer. Guided by absorption spectra, excitation and emission scans were run using an ISA Fluoromax-2 Fluorometer.
500 μL of MeOH was added into sample vial containing about 1 mg of testing compound, and aspirated with pipette to mix. 500 μL sample aliquot was then placed into 5 mL volumetric flask and brought up to volume with MeOH, and 5 mL was used as stock. Serial dilutions in 50 mL volumetric flasks were performed until final concentration of 100× reached. Dilution protocol was repeated for each sample. After dilution, 2.5 mL of sample was placed into a 3 mL Quartz cuvette and the cuvette was placed in ISA Fluoromax-2 Fluorometer. Absorption scan was run in Beckman DU-40 Spectrophotometer. Excitation and emission scans were run and spectral data were collected.

[2] = mouse spleen membranes, [3H] CP-55,940, read-out: CB2 Ki

Row | SMILES | Ki (CB1 cannabinoid receptor) [nM] | Ki (CB2 receptor; [2]) [nM] | Absorbance Peak [1] [nm] | Fluorescence Emission Peak [1] [nm] | Fluorescence Excitation Peak [1] [nm] | Mol Extinction [1] [mol⁻¹ cm⁻¹ L⁻¹] | Stoke's Shift [1] [nm] | Ki (CB2 receptor) [nM]
1 | CCCCCCC(C)(C)c1cc(OC)c2c(c1)oc(=O)c1ccncc12 [Compound 49] | 3760 | 35.4 | – | – | – | – | – | –
2 | CCCCCCCN(C)c1cc(OC)c2c(c1)oc(=O)c1ccc(C(F)(F)F)cc12 [Compound 12] | 6360 | 1480 | – | – | – | – | – | –
3 | CCCCCCc1cc2c3c(c(=O)oc2cc1O)CCC(C)C3 (centres unmarked) [Compound 1] | 8610 | 5630 | – | – | – | – | – | –
4 | CCCCCCCN(C)c1cc(O)c2c(oc(=O)c3ccc(C)cc32)c1Br [Compound 10] | 9 | 0.7 | – | – | – | – | – | –
5 | CCCCCCCN(C)c1cc(O)c2c3c(c(=O)oc2c1)CCC(C)C3 (centres unmarked) [Compound 6] | 122 | 128 | 364 | 460 | 367 | 18000 | 93 | –
6 | CCCCCCCN(C)c1cc(O)c2c(c1)oc(=O)c1ccc(OC)cc12 [Compound 16] | 1300 | – | 317 | 498 | 321 | 21800 | 177 | 148
7 | CCCCCCN(C)c1cc(O)cc2oc(=O)c3c(c12)CC(C)CC3 (centres unmarked) [Compound 7] | 160 | 288 | – | – | – | – | – | –
8 | CCCCCCCN(C)c1cc(O)c2c(c1)oc(=O)c1ccc(O)cc12 [Compound 15] | 990 | 23 | 318 | 502 | 320 | 23400 | 182 | –
9 | CCCCCCC(C)Oc1cc(O)c2c3c(c(=O)oc2c1)CCC(C)C3 (centres unmarked) [Compound 3] | 30 | 6 | – | – | – | – | – | –
10 | CCCCCCCC(C)(C)c1cc(OC)c2c3c(c(=O)oc2c1)CCC(=O)C3 [Compound 19] | 40 | 1 | – | – | – | – | – | –
11 | CCCCCCCN(C)c1cc(O)c2c(c1)oc(=O)c1ccc(C(F)(F)F)cc12 [Compound 11] | 6680 | 1680 | – | – | – | – | – | –
12 | CCCCCCC(C)Oc1cc(O)c2c3c(c(=O)oc2c1)CCC(=O)C3 (centres unmarked) [Compound 17] | 304 | – | – | – | – | – | – | 0.4
13 | CCCCCCC(C)Oc1cc(OC(=O)CCCCN2CCOCC2)c2c3c(c(=O)oc2c1)CCC(=O)C3 (centres unmarked) [Compound 20] | 6 | 0.6 | – | – | – | – | – | –
14 | CCCCCCCN(C)c1cc(O)cc2oc(=O)c3c(c12)CC(C)CC3 (centres unmarked) [Compound 8] | 2580 | – | – | – | – | – | – | 824
15 | CCCCCCCN(C)c1cc(OC)c2c(c1)oc(=O)c1ccc(C)cc12 [Compound 14] | 1260 | 90 | 405 | 465 | 405 | 11400 | 60 | –
16 | CCCCCCCN(C)c1cc(O)c2c(c1)oc(=O)c1ccc(C)cc12 [Compound 13] | 140 | 16 | 316 | 519 | 319 | 22700 | 200 | –
17 | CCCCCCC(C)(C)c1cc(O)c2c(c1)oc(=O)c1cc(O)c(O)cc12 [Compound 48] | 1950 | 101 | – | – | – | – | – | –
18 | CCCCCCN(C)c1cc(O)c2c3c(c(=O)oc2c1)CCC(C)C3 (centres unmarked) [Compound 5] | 2000 | 1660 | 364 | 460 | 368 | 18600 | 92 | –
19 | CCCCCCCC(C)(C)c1cc(OC)c2c3c(c(=O)oc2c1)CCC(C)C3 (centres unmarked) [Compound 32] | – | – | 327 | 390 | 330 | – | 60 | –
20 | CCCCCC(C)Oc1cc(O)c2c3c(c(=O)oc2c1)CCC(C)C3 (centres unmarked) [Compound 2] | 150 | 25 | 320 | 423 | 326 | 13900 | 97 | –
21 | CCCCCCC(C)Oc1cc(OC)c2c3c(c(=O)oc2c1)CCC(=O)C3 (centres unmarked) [Compound 18] | 8430 | 355 | – | – | – | – | – | –
22 | CCCCCCCN(C)c1cc2oc(=O)c3ccc(C)cc3c2c(O)c1Br [Compound 9] | 50 | 3 | – | – | – | – | – | –
23 | CCCCCCC(C)(C)c1cc(O)c2c(c1)oc(=O)c1ccccc12 [Compound 47] | 4790 | 6.6 | – | – | – | – | – | –
